Measured values published in patent US9023832B2, “Derivatives of 1-amino-2-cyclopropylethylboronic acid” (Millennium Pharmaceuticals, Inc., priority 2010, dated 2015).

Experiments:
human 20S proteasome β1 = molecular target: T1, human 20S proteasome β1 (Homo sapiens, UniProt P28072); assay: 20S Proteasome Assay, β1 selective substrate (Z-LLE-AMC); type: biochemical; conditions: typically tested as mannitol esters; for inhibition at 0.41 µM: concentration 0.41 μM; for inhibition at 0.33 µM: concentration 0.33 μM
T1 construct: purchased Boston Biochem
Experimental: (§1) β1 Selective substrate: To 1 μL of test compound dissolved in DMSO in a 384-well microtiter plate is added 25 μL of assay buffer at 37° C. containing human PA28 activator (Boston Biochem, 12 nM final) with Z-LLE-AMC ([…]1 selective substrate) (15 μM final), followed by 25 μL of assay buffer at 37° C. containing human 20S proteasome (Boston Biochem, 0.25 nM final). Assay buffer is composed of 20 mM HEPES, 0.5 mM EDTA and 0.01% BSA, pH7.4. The reaction is followed on a BMG Galaxy plate reader (37° C., excitation 380 nm, emission 460 nm, gain 20). Percent inhibition is calculated relative to 0% inhibition (DMSO) and 100% inhibition (10 μM bortezomib) controls. Compound of formula (I) are typically tested in this assay as their mannitol esters (prepared as described above). The mannitol esters are hydrolyzed to the free active boronic acid species.

human 20S proteasome β5 = molecular target: T2, human 20S proteasome β5 (Homo sapiens, UniProt P28074); assay: 20S Proteasome Assay, β5 selective substrate (Ac-WLA-AMC); type: biochemical; conditions: concentration 0.41 μM; typically tested as mannitol esters
T2 construct: purchased Boston Biochem
Experimental: as §1, with “β5” for “β1”, “384-well black” for “384-well”, “Ac-WLA-AMC (β5” for “Z-LLE-AMC ([…]1”

`O=C(N[C@@H](CC1CC1)B(O)O)[C@H](Cc1ccccc1)NS(=O)(=O)c1ccc(Oc2ccccn2)cc1` [Compound 1, ((1R)-2-cyclopropyl-1-{[(2S)-3-phenyl-2-({[4-(pyridin-2-yloxy)phenyl]sulfonyl}amino)propanoyl]amino}ethyl)boronic acid] showed an inhibition at 0.41 µM (human 20S proteasome β1) of 67.2% and an inhibition at 0.41 µM (human 20S proteasome β5) of 91.8%.
`O=C(N[C@@H](CC1CC1)B(O)O)[C@H](Cc1ccccc1)NS(=O)(=O)c1ccc(Oc2cccnc2)cc1` [Compound 2, ((1R)-2-cyclopropyl-1-{[(2S)-3-phenyl-2-({[4-(pyridin-3-yloxy)phenyl]sulfonyl}amino)propanoyl]amino}ethyl)boronic acid] showed an inhibition at 0.41 µM (human 20S proteasome β1) of 70.7% and an inhibition at 0.41 µM (human 20S proteasome β5) of 89%.
In the case of `O=C(N[C@@H](CC1CC1)B(O)O)[C@H](Cc1ccccc1)NS(=O)(=O)c1ccc2ncsc2c1` [Compound 4, [(1R)-1-({(2S)-2-[(1,3-benzothiazol-6-ylsulfonyl)amino]-3-phenylpropanoyl}amino)-2-cyclopropylethyl]boronic acid], the inhibition at 0.41 µM (human 20S proteasome β1) is reported as 73.2% and the inhibition at 0.41 µM (human 20S proteasome β5) is reported as 89.8%.
With `O=C(N[C@@H](CC1CC1)B(O)O)[C@H](Cc1ccccc1)NS(=O)(=O)c1ccc(-c2cnco2)cc1` [Compound 6, ((1R)-2-cyclopropyl-1-{[(2S)-2-({[4-(1,3-oxazol-5-yl)phenyl]sulfonyl}amino)-3-phenylpropanoyl]amino}ethyl)boronic acid] the inhibition at 0.41 µM (human 20S proteasome β1) was 65.4% and the inhibition at 0.41 µM (human 20S proteasome β5) was 92.9%.
`O=C(N[C@@H](CC1CC1)B(O)O)[C@H](Cc1ccccc1)NS(=O)(=O)c1cccc(Oc2ccc(C(F)(F)F)cn2)c1` [Compound 7, {(1R)-2-cyclopropyl-1-[((2S)-3-phenyl-2-{[(3-{[5-(trifluoromethyl)pyridin-2-yl]oxy}phenyl)sulfonyl]amino}propanoyl)amino]ethyl}boronic acid] showed an inhibition at 0.41 µM (human 20S proteasome β1) of 81.3% and an inhibition at 0.41 µM (human 20S proteasome β5) of 93%.
In the case of `O=C(N[C@@H](Cc1ccccc1)C(=O)N[C@@H](CC1CC1)B(O)O)c1cc(Cl)ccc1Cl` [Compound 9, [(1R)-2-cyclopropyl-1-({(2S)-2-[(2,5-dichlorobenzoyl)amino]-3-phenylpropanoyl}amino)ethyl]boronic acid], the inhibition at 0.33 µM (human 20S proteasome β1) is reported as 91.1% and the inhibition at 0.41 µM (human 20S proteasome β5) is reported as 93.3%.
For `O=C(N[C@@H](Cc1ccccc1)C(=O)N[C@@H](CC1CC1)B(O)O)c1cnccn1` [Compound 12, [(1R)-2-cyclopropyl-1-({(2S)-3-phenyl-2-[(pyrazin-2-ylcarbonyl)amino]propanoyl}amino)ethyl]boronic acid], the inhibition at 0.33 µM (human 20S proteasome β1) was 93% and the inhibition at 0.41 µM (human 20S proteasome β5) was 81.9%.
For `CN1C(=O)Cc2cc(S(=O)(=O)N[C@@H](Cc3ccccc3)C(=O)N[C@@H](CC3CC3)B(O)O)ccc21` [Compound 13, {(1R)-2-cyclopropyl-1-[((2S)-2-{[(1-methyl-2-oxo-2,3-dihydro-1H-indol-5-yl)sulfonyl]amino}-3-phenylpropanoyl)amino]ethyl}boronic acid], the inhibition at 0.41 µM (human 20S proteasome β1) was 66.7% and the inhibition at 0.41 µM (human 20S proteasome β5) was 83.7%.
With `O=C(N[C@@H](CC1CC1)B(O)O)[C@H](Cc1ccccc1)NS(=O)(=O)c1ccc(Oc2ccncc2)cc1` [Compound 14, ((1R)-2-cyclopropyl-1-{[(2S)-3-phenyl-2-({[4-(pyridin-4-yloxy)phenyl]sulfonyl}amino)propanoyl]amino}ethyl)boronic acid] the inhibition at 0.41 µM (human 20S proteasome β1) was 75.7% and the inhibition at 0.41 µM (human 20S proteasome β5) was 93.1%.
`O=C1COc2cc(S(=O)(=O)N[C@@H](Cc3ccccc3)C(=O)N[C@@H](CC3CC3)B(O)O)c(Cl)cc2N1` [Compound 15, {(1R)-1-[((2S)-2-{[(6-chloro-3-oxo-3,4-dihydro-2H-1,4-benzoxazin-7-yl)sulfonyl]amino}-3-phenylpropanoyl)amino]-2-cyclopropylethyl}boronic acid] was tested, and the inhibition at 0.41 µM (human 20S proteasome β1) was 77.1% and the inhibition at 0.41 µM (human 20S proteasome β5) was 90.3%.
Molecule `O=C(c1cccc(S(=O)(=O)N[C@@H](Cc2ccccc2)C(=O)N[C@@H](CC2CC2)B(O)O)c1)c1ccccn1` [Compound 16, ((1R)-2-cyclopropyl-1-{[(2S)-3-phenyl-2-({[3-(pyridin-2-ylcarbonyl)phenyl]sulfonyl}amino)propanoyl]amino}ethyl)boronic acid] has an inhibition at 0.41 µM (human 20S proteasome β1) of 82.7% and an inhibition at 0.41 µM (human 20S proteasome β5) of 90.8%.
In the case of `O=C(N[C@@H](CC1CC1)B(O)O)[C@H](Cc1ccccc1)NS(=O)(=O)c1cccc2cnccc12` [Compound 17, [(1R)-2-cyclopropyl-1-({(2S)-2-[(isoquinolin-5-ylsulfonyl)amino]-3-phenylpropanoyl}amino)ethyl]boronic acid], the inhibition at 0.41 µM (human 20S proteasome β1) is reported as 71.9% and the inhibition at 0.41 µM (human 20S proteasome β5) is reported as 89.7%.
